Laboratory results taken from patent US12679824B2 (Hoffmann-La Roche Inc., priority 2020, dated 2026).

System: Acinetobacter baumannii ATCC17961
Test: 90% Growth Inhibitory Concentration (IC90) determination, antimicrobial susceptibility testing
Assay type: cell-based
Conditions: Acinetobacter baumannii, ATCC17961, 16 h, Acinetobacter baumannii ATCC17961; Iso-Sensitest broth; growth by optical density at 600 nm over 16h; concentration inhibiting 90% of the growth; read-out: ATCC 17961 IC90
Experimental: Antimicrobial Susceptibility Testing:
90% Growth Inhibitory Concentration (IC90) Determination
The in vitro antimicrobial activity of the compounds was determined according to the following procedure:
The assay used a 10-points Iso-Sensitest broth medium to measure quantitatively the in vitro activity of the compounds against Acinetobacter baumannii ATCC17961.
Stock compounds in DMSO were serially twofold diluted (e.g. range from 50 to 0.097 μM final concentration) in 384 wells microtiter plates and inoculated with 49 μl the bacterial suspension in Iso-Sensitest medium to have a final cell concentration of ~5×10^(5) CFU/ml in a final volume/well of 50 ul/well. Microtiter plates were incubated at 35±2° C.
Bacterial cell growth was determined with the measurement of optical density at λ=600 nm each 20 minutes over a time course of 16h. Growth inhibition was calculated during the logarithmic growth of the bacterial cells with determination of the concentration inhibiting 50% (IC50) and 90% (IC90) of the growth.
Table 1 provides the 90% growth inhibitory concentrations (IC90) in micromoles per liter of the compounds of present invention obtained against the strain Acinetobacter baumannii ATCC17961.

Going from `CN(C)c1ccc(-n2cc(-c3cnc(C(=O)Nc4ccc(C(=O)N5CCN(C(=O)C6CCNCC6)CC5)c(Cl)c4)n3C)c(C(F)(F)F)n2)nn1` [Example B3, N-[3-chloro-4-[4-(piperidine-4-carbonyl)piperazine-1-carbonyl]phenyl]-5-[1-[6-(dimethylamino)pyridazin-3-yl]-3-(trifluoromethyl)pyrazol-4-yl]-1-methyl-imidazole-2-carboxamide] to `COc1nccc(-n2cc(-c3cnc(C(=O)Nc4ccc(C(=O)N5CCN(C(=O)C6CCNCC6)CC5)c(Cl)c4)n3C)c(C(F)(F)F)n2)n1` [Example C6, N-[3-chloro-4-[4-(piperidine-4-carbonyl)piperazine-1-carbonyl]phenyl]-5-[1-(2-methoxypyrimidin-4-yl)-3-(trifluoromethyl)pyrazol-4-yl]-1-methyl-imidazole-2-carboxamide], the IC90 rises from 480 nM to 890 nM (1.9-fold).

Going from `COCCNc1ccc(-n2cc(-c3cnc(C(=O)Nc4ccc(C(=O)N5CCN(C(=O)C6CCNCC6)CC5)c(Cl)c4)n3C)c(C(F)(F)F)n2)nc1` [Example C2, N-[3-chloro-4-[4-(piperidine-4-carbonyl)piperazine-1-carbonyl]phenyl]-5-[1-[5-(2-methoxyethylamino)-2-pyridyl]-3-(trifluoromethyl)pyrazol-4-yl]-1-methyl-imidazole-2-carboxamide] to `Cn1c(-c2cn(-c3ccc(NCCC(N)=O)cn3)nc2C(F)(F)F)cnc1C(=O)Nc1ccc(C(=O)N2CCN(C(=O)C3CCNCC3)CC2)c(Cl)c1` [Example C3, 5-[1-[5-[(3-amino-3-oxo-propyl)amino]-2-pyridyl]-3-(trifluoromethyl)pyrazol-4-yl]-N-[3-chloro-4-[4-(piperidine-4-carbonyl)piperazine-1-carbonyl]phenyl]-1-methyl-imidazole-2-carboxamide], the IC90 rises from 340 nM to 1200 nM (3.5-fold).

Compared with `Cn1c(-c2cn(-c3ccc(N)cn3)nc2C(F)(F)F)cnc1C(=O)Nc1ccc(C(=O)N2CCN(C(=O)C3(O)CCNCC3)CC2)c(Cl)c1` [Example C4, 5-[1-(5-amino-2-pyridyl)-3-(trifluoromethyl)pyrazol-4-yl]-N-[3-chloro-4-[4-(4-hydroxypiperidine-4-carbonyl)piperazine-1-carbonyl]phenyl]-1-methyl-imidazole-2-carboxamide], `Cn1c(-c2cn(-c3ccc(N)cn3)nc2C(F)(F)F)cnc1C(=O)Nc1ccc(C(=O)N2CCN(C(=O)[C@@H]3COCCN3)CC2)c(Cl)c1` [Example C8, 5-[1-(5-amino-2-pyridyl)-3-(trifluoromethyl)pyrazol-4-yl]-N-[3-chloro-4-[4-[(3S)-morpholine-3-carbonyl]piperazine-1-carbonyl]phenyl]-1-methyl-imidazole-2-carboxamide] is 2.6-fold higher in IC90: 310 nM for the first, 820 nM for the second.

First: COc1ccnc(-n2cc(-c3cnc(C(=O)Nc4ccc(C(=O)N5CCN(C(=O)C6CCNCC6)CC5)c(Cl)c4)n3C)c(C(F)(F)F)n2)n1 [Example C5, N-[3-chloro-4-[4-(piperidine-4-carbonyl)piperazine-1-carbonyl]phenyl]-5-[1-(4-methoxypyrimidin-2-yl)-3-(trifluoromethyl)pyrazol-4-yl]-1-methyl-imidazole-2-carboxamide]
Second: COCCn1ncc(-n2cc(-c3cnc(C(=O)Nc4ccc(C(=O)N5CCN(C(=O)C6CCNCC6)CC5)c(Cl)c4)n3C)c(C(F)(F)F)n2)c1C [Example E2, N-[3-chloro-4-[4-(piperidine-4-carbonyl)piperazine-1-carbonyl]phenyl]-5-[1-[1-(2-methoxyethyl)-5-methyl-pyrazol-4-yl]-3-(trifluoromethyl)pyrazol-4-yl]-1-methyl-imidazole-2-carboxamide]
The IC90 of the first is 2-fold higher: 930 nM for the first, 470 nM for the second.

First: Cn1c(-c2cn(-c3ccc(N)cn3)nc2C(F)(F)F)cnc1C(=O)Nc1ccc(C(=O)NCC2CCN(C(=O)C3CCNCC3)CC2)c(Cl)c1 [Example C7, 5-[1-(5-amino-2-pyridyl)-3-(trifluoromethyl)pyrazol-4-yl]-N-[3-chloro-4-[[1-(piperidine-4-carbonyl)-4-piperidyl]methylcarbamoyl]phenyl]-1-methyl-imidazole-2-carboxamide]
Second: CNc1ccc(-n2cc(-c3cnc(C(=O)Nc4ccc(C(=O)N5CCN(C(=O)C6CCNCC6)CC5)c(C)c4)n3C)c(C(F)(F)F)n2)nc1 [Example D6, 1-methyl-5-[1-[5-(methylamino)-2-pyridyl]-3-(trifluoromethyl)pyrazol-4-yl]-N-[3-methyl-4-[4-(piperidine-4-carbonyl)piperazine-1-carbonyl]phenyl]imidazole-2-carboxamide]
The IC90 of the first is 1.8-fold higher: 660 nM for the first, 370 nM for the second.

Going from `CN1CCC(C(=O)N2CCN(C(=O)c3ccc(NC(=O)c4ncc(-c5cn(-c6ccc(N)cn6)nc5C(F)F)n4C)cc3Cl)CC2)CC1` [Example C9, 5-[1-(5-amino-2-pyridyl)-3-(difluoromethyl)pyrazol-4-yl]-N-[3-chloro-4-[4-(1-methylpiperidine-4-carbonyl)piperazine-1-carbonyl]phenyl]-1-methyl-imidazole-2-carboxamide] to `COc1nn(-c2ccc(N)cn2)cc1-c1cnc(C(=O)Nc2ccc(C(=O)N3CCN(C(=O)C4CCN(C)CC4)CC3)c(Cl)c2)n1C` [Example C10, 5-[1-(5-amino-2-pyridyl)-3-methoxy-pyrazol-4-yl]-N-[3-chloro-4-[4-(1-methylpiperidine-4-carbonyl)piperazine-1-carbonyl]phenyl]-1-methyl-imidazole-2-carboxamide], the IC90 rises from 420 nM to 7000 nM (17-fold).

First: CN1CCC(C(=O)N2CCN(C(=O)c3ccc(NC(=O)c4ncc(-c5cn(-c6ccc(N)cn6)nc5C#N)n4C)cc3Cl)CC2)CC1 [Example C11, 5-[1-(5-amino-2-pyridyl)-3-cyano-pyrazol-4-yl]-N-[3-chloro-4-[4-(1-methylpiperidine-4-carbonyl)piperazine-1-carbonyl]phenyl]-1-methyl-imidazole-2-carboxamide]
Second: Cc1c[nH]nc1-n1cc(-c2cnc(C(=O)Nc3ccc(C(=O)N4CCN(C(=O)C5CCN(C)CC5)CC4)c(Cl)c3)n2C)c(C(F)(F)F)n1 [Example C15, N-[3-chloro-4-[4-(1-methylpiperidine-4-carbonyl)piperazine-1-carbonyl]phenyl]-1-methyl-5-[1-(4-methyl-1H-pyrazol-3-yl)-3-(trifluoromethyl)pyrazol-4-yl]imidazole-2-carboxamide]
The IC90 of the first is 2.2-fold higher: 2000 nM for the first, 910 nM for the second.

`Cn1c(-c2cn(-c3ccc(N)cn3)nc2C(F)(F)F)cnc1C(=O)Nc1ccc(C(=O)N2CCN(C(=O)CN3CCC(O)C3)CC2)c(Cl)c1` (stereo not drawn) [Example C16, 5-[1-(5-amino-2-pyridyl)-3-(trifluoromethyl)pyrazol-4-yl]-N-[3-chloro-4-[4-[2-(3-hydroxypyrrolidin-1-yl)acetyl]piperazine-1-carbonyl]phenyl]-1-methyl-imidazole-2-carboxamide] and `CNc1ccc(-n2cc(-c3cnc(C(=O)Nc4ccc(C(=O)N5CCN(C(=O)CN6CCC(O)C6)CC5)c(Cl)c4)n3C)c(C(F)(F)F)n2)nc1` (stereo not drawn) [Example D5, N-[3-chloro-4-[4-[2-(3-hydroxypyrrolidin-1-yl)acetyl]piperazine-1-carbonyl]phenyl]-1-methyl-5-[1-[5-(methylamino)-2-pyridyl]-3-(trifluoromethyl)pyrazol-4-yl]imidazole-2-carboxamide] are within 1.5-fold of each other in IC90: 260 nM for the first, 310 nM for the second.

Going from `Cn1c(-c2cn(-c3ccc([N+](=O)[O-])cn3)nc2C(F)(F)F)cnc1C(=O)Nc1ccc(C(=O)N2CCN(C(=O)[C@H]3NCC[C@@H]3O)CC2)c(Cl)c1` [Example C17, N-[3-chloro-4-[4-[(2S,3S)-3-hydroxypyrrolidine-2-carbonyl]piperazine-1-carbonyl]phenyl]-1-methyl-5-[1-(5-nitro-2-pyridyl)-3-(trifluoromethyl)pyrazol-4-yl]imidazole-2-carboxamide] to `CNc1ccc(-n2cc(-c3cnc(C(=O)Nc4ccc(C(=O)N5CCN(C(=O)[C@H]6NCC[C@@H]6O)CC5)c(Cl)c4)n3C)c(C(F)(F)F)n2)nc1` [Example D4, N-[3-chloro-4-[4-[(2S,3S)-3-hydroxypyrrolidine-2-carbonyl]piperazine-1-carbonyl]phenyl]-1-methyl-5-[1-[5-(methylamino)-2-pyridyl]-3-(trifluoromethyl)pyrazol-4-yl]imidazole-2-carboxamide], the IC90 falls from 790 nM to 520 nM (1.5-fold).

Molecule `CNc1ccc(-n2cc(-c3cnc(C(=O)Nc4ccc(C(=O)N5CCN(C(=O)[C@@H]6C[C@@H](O)CN6)CC5)c(Cl)c4)n3C)c(C(F)(F)F)n2)nc1` [Example D7, N-[3-chloro-4-[4-[(2S,4R)-4-hydroxypyrrolidine-2-carbonyl]piperazine-1-carbonyl]phenyl]-1-methyl-5-[1-[5-(methylamino)-2-pyridyl]-3-(trifluoromethyl)pyrazol-4-yl]imidazole-2-carboxamide] has an IC90 of 280 nM.

Same assay, conditions: Acinetobacter baumannii, ATCC17961, 16 h, read-out: ATCC 17961 IC90

Going from `Cn1c(-c2cn(-c3ccc(N)cn3)nc2C(F)(F)F)cnc1C(=O)Nc1ccc(C(=O)N2CCN(C(=O)C3CCNCC3)CC2)c(Cl)c1` [Example C1, 5-[1-(5-Amino-2-pyridyl)-3-(trifluoromethyl)pyrazol-4-yl]-N-[3-chloro-4-[4-(piperidine-4-carbonyl)piperazine-1-carbonyl]phenyl]-1-methyl-imidazole-2-carboxamide] to `COCCn1cc(-n2cc(-c3cnc(C(=O)Nc4ccc(C(=O)N5CCN(C(=O)C6CCNCC6)CC5)c(Cl)c4)n3C)c(C(F)(F)F)n2)cn1` [Example E1, N-[3-chloro-4-[4-(piperidine-4-carbonyl)piperazine-1-carbonyl]phenyl]-5-[1-[1-(2-methoxyethyl)pyrazol-4-yl]-3-(trifluoromethyl)pyrazol-4-yl]-1-methyl-imidazole-2-carboxamide], the IC90 rises from 220 nM to 880 nM (4-fold).
